Reference: PMC10743086, “Immunofluorescence-Based Assay for High-Throughput Analysis of Multidrug Resistance Markers in Non-Small Cell Lung Carcinoma Patient-Derived Cells” (Diagnostics, 2023)
pIC50: −log10 of the molar value.

How the values were obtained:
Type in all cases: cell-based, human
NCI-H460 cells = test: Cytotoxicity by immunofluorescence cell scoring (cell counts), NSCLC cell line; conditions: 24 h treatment
Experimental: (§1) Vinorelbine and pemetrexed were purchased from Selleckchem (Houston, TX, USA). Carboplatin, cisplatin, docetaxel, etoposide, gemcitabine, gefitinib, and paclitaxel were purchased from Sigma-Aldrich Chemie GmbH (Taufkirchen, Germany). The cisplatin, carboplatin, and gemcitabine were dissolved in sterile water, while the etoposide, docetaxel, vinorelbine, paclitaxel, gefitinib, and pemetrexed were dissolved in DMSO and stored at −20 °C. Before treatment, all the stock solutions were freshly diluted in sterile water.
(§2) The compounds were administered 48 h after seeding. The treatment lasted 24 h.
(§3) The immunofluorescence assay for the quantification of MDR markers was optimized to distinguish cancer cells from stromal cells using a cytokeratin 8/18 (CK8/18) antibody cocktail. The cells were fixed with 4% paraformaldehyde for 20 min at RT and washed three times with PBS using the Wellwash Versa microplate washer (Thermo Fisher Scientific, Waltham, MA, USA). The cells were then blocked with 2% bovine serum albumin (BSA) in PBS for 1 h at RT. […] Co-immunostaining with antibodies against MDR markers was performed to detect the presence of ABCB1, ABCC1, and ABCG2 in both the cancer and stromal cells. […] The secondary antibodies were incubated with the cells at RT for 2 h in the dark. […] Finally, the cells were washed three times with PBS and stored at 4 °C in the dark before imaging.
(§4) The fluorescently labeled cells were imaged using the ImageXpress Pico Automated Cell Imaging System (Molecular Devices, San Jose, CA, USA) with a 4x objective after determining the appropriate exposure time for each illumination filter. Analysis of the obtained images was performed using CellReporterXpress software v. 2.8.2.669 (Molecular Devices). The cytotoxicity of the compounds was determined using the Cell Scoring Analysis Protocol. […] Expression of MDR markers was determined using the Multi-Wavelength Cell Scoring Analysis Protocol.

NCI-H460/R cells = test: Cytotoxicity by immunofluorescence cell scoring (cell counts), multidrug-resistant NSCLC cell line; conditions: 24 h treatment
Text: Human non-small cell lung carcinoma cells (NCI-H460) were purchased from the American Type Culture Collection (Rockville, MD, USA), and normal embryonic lung fibroblasts (MRC-5) were purchased from the European Collection of Authenticated Cell Cultures (Salisbury, UK). Multidrug-resistant NCI-H460/R cells overexpressing ABCB1 were selected from the NCI-H460 cells after selective pressure with doxorubicin [21]. All the cell lines were maintained in MEM medium (Sigma-Aldrich Chemie GmbH, Taufkirchen, Germany) supplemented with 10% FBS, 2 mM L-glutamine, and antibiotic-antimycotic solution. All the cell lines were maintained at 37 °C in a humidified atmosphere with 5% CO2.
as §1, §2, §3, §4

MRC-5 cells = test: Cytotoxicity by immunofluorescence cell scoring (cell counts), normal fibroblasts; conditions: 24 h treatment
Experimental: as §1, §2, §3, §4

[1] = test system: ABCB1 expression in MRC-5 cells; test: Immunofluorescence assay of MDR marker ABCB1 expression; conditions: five concentrations, 24 h
Experimental: as §1, §2, §3, §4

[2] = test system: ABCB1 expression in NCI-H460 cells; test: as above; conditions: five concentrations, 24 h
Experimental: as §1, §2, §3, §4

[3] = test system: ABCB1 expression in NCI-H460/R cells; test: as above; conditions: five concentrations, 24 h
Experimental: as §1, §2, §3, §4

[4] = test system: Cancer cells (CK8/18+) of patient-derived NSCLC cultures; test: Cytotoxicity in patient-derived NSCLC cultures, cancer cells; conditions: 7 days treatment
Experimental: (§5) Tissue samples were collected during surgery, and the NSCLC diagnosis, histological grade, stage, necrosis, and lymph node invasion status were determined by histopathological analysis. […] The surgical specimens were placed in a sterile tube containing antibiotic-antimycotic solution (Sigma-Aldrich Chemie GmbH, Taufkirchen, Germany) and immediately transported to the research laboratory for further processing.
(§6) Upon arrival, the tissue was manually chopped with a surgical blade in a Petri dish under sterile conditions. The samples were cut into 3–5 mm pieces and further dissociated using the Tumor Dissociation Kit (Miltenyi Biotec, Bergisch Gladbach, Germany). The Tumor Dissociation Kit was used to dissociate the cells from the tumor tissue according to the manufacturer’s instructions. The samples were incubated in a 37 °C orbital shaker (KS 4000 ic control, IKA, Königswinter, Germany) at 300 rpm for 90 min. After incubation, the dissociated tissue was placed in DMEM/Ham’s F12 (1:3 ratio) growth medium supplemented with 5% fetal bovine serum (Corning, NY, USA), antibiotic-antimycotic solution, 4 µg/mL hydrocortisone (Sigma-Aldrich Chemie GmbH, Taufkirchen, Germany), 1 µg/mL insulin (Sigma-Aldrich Chemie GmbH, Taufkirchen, Germany), 10 ng/mL epidermal growth factor (BioLegend, San Diego, CA, USA), and 24 µg/mL adenine (Sigma-Aldrich Chemie GmbH, Taufkirchen, Germany). The DMEM and Ham’s F12 growth media were purchased from Sigma-Aldrich Chemie GmbH (Taufkirchen, Germany).
(§7) The dissociated tissue was cultured in T-25 cell culture flasks until cell attachment was observed before the medium was replaced. If no cell attachment was achieved within 7 days, the sample was discarded. Successful patient-derived cultures were maintained at 37 °C in a humidified atmosphere with 5% CO2 and grown to confluence before undergoing further experiments. […] Partial trypsinization was performed by detaching the fibroblast-like cells with 1 mL of 0.05% trypsin for 1 min at 37 °C, followed by 2 min at room temperature (RT).
as §1
(§8) The primary cells were seeded in black, clear bottom 384-well cell culture microplates (Thermo Fisher Scientific, Waltham, MA, USA) in 50 µL of cell growth medium at a density of 1000 cells per well. The compounds were administered 72 h after seeding. The treatment lasted 7 days.
as §3

[5] = test system: Non-cancer cells (CK8/18-) of patient-derived NSCLC cultures; test: Cytotoxicity in patient-derived NSCLC cultures, non-cancer cells; conditions: 7 days treatment
Experimental: as §5, §6, §7, §1, §8, §3

[6] = test system: ABCB1 expression in cancer cells (CK8/18+); test: Immunofluorescence assay of ABCB1 expression in patient-derived NSCLC cultures; conditions: 7 days
Experimental: as §5, §6, §7, §1, §8, §3

[7] = test system: ABCC1 expression in cancer cells (CK8/18+); test: Immunofluorescence assay of ABCC1 expression in patient-derived NSCLC cultures
Experimental: as §5, §6, §7, §1, §8, §3

[8] = test system: ABCG2 expression in cancer cells (CK8/18+); test: Immunofluorescence assay of ABCG2 expression in patient-derived NSCLC cultures; conditions: 7 days
Experimental: as §5, §6, §7, §1, §8, §3

[9] = test system: ABCC1 expression in non-cancer cells (CK8/18-); test: Immunofluorescence assay of ABCC1 expression in patient-derived NSCLC cultures, non-cancer cells; conditions: Table S2
Experimental: as §5, §6, §7, §1, §8, §3

[10] = NCI-H460 (co-culture with MRC-5)
[11] = NCI-H460/R (co-culture with MRC-5)
[12] = MRC-5 (co-culture with NCI-H460)
[13] = MRC-5 (co-culture with NCI-H460/R)
[14] = culture TR58, cancer cells (CK8/18+)
[15] = culture TR64, cancer cells (CK8/18+)
[16] = culture TR65, cancer cells (CK8/18+)
[17] = culture TR84, cancer cells (CK8/18+)
[18] = culture TR87, cancer cells (CK8/18+)
[19] = culture TR58, non-cancer cells (CK8/18-)
[20] = culture TR64, non-cancer cells (CK8/18-)
[21] = culture TR65, non-cancer cells (CK8/18-)
[22] = culture TR84, non-cancer cells (CK8/18-)
[23] = culture TR87, non-cancer cells (CK8/18-)

With `N.N.O=C([O-])C1(C(=O)[O-])CCC1.[Pt+2]` [Carboplatin] the pIC50 (NCI-H460 cells; [10]) was < 4.00, the pIC50 (NCI-H460 cells; NCI-H460 monoculture) was < 4.00 and the pIC50 (NCI-H460/R cells; [11]) was < 4.00. For the same compound, the pIC50 (NCI-H460/R cells; NCI-H460/R monoculture) was < 4.00, the pIC50 (MRC-5 cells; [12]) was < 4.00 and the pIC50 (MRC-5 cells; [13]) was < 4.00. The pIC50 (MRC-5 cells; MRC-5 monoculture) was < 4.00, the “ABCB1 Expression” value [1, 12] was “no change” and the “ABCB1 Expression” value [1, 13] was “no change”. The “ABCB1 Expression” value ([1]; MRC-5 monoculture) was “no change”, the “ABCB1 Expression” value [2, 10] was “no change” and the “ABCB1 Expression” value ([2]; NCI-H460 monoculture) was “no change”. For the same compound, the “ABCB1 Expression” value [3, 11] was “no change”, the “ABCB1 Expression” value ([3]; NCI-H460/R monoculture) was “no change” and the pIC50 [4, 14] was 4.22. For the same compound, the pIC50 [4, 15] was 4.41, the pIC50 [4, 16] was 4.65 and the pIC50 [4, 17] was 5.09. The pIC50 [4, 18] was 4.36, the pIC50 [5, 19] was 4.56 and the pIC50 [5, 20] was 4.89. It also gave a pIC50 [5, 21] of 5.67, a pIC50 [5, 22] of 5.89 and a pIC50 [5, 23] of 4.64. For the same compound, the ABCB1 Expression [6, 14] was “no change”, the ABCB1 Expression [6, 15] was “increase (An increase in ABCB1, ABCC1, or ABCG2 expression of at least 20% at a minimum of one concentration is shown in the table.)” and the ABCB1 Expression [6, 16] was “increase (An increase in ABCB1, ABCC1, or ABCG2 expression of at least 20% at a minimum of one concentration is shown in the table.)”. The ABCB1 Expression [6, 17] was “increase (An increase in ABCB1, ABCC1, or ABCG2 expression of at least 20% at a minimum of one concentration is shown in the table.)”, the ABCB1 Expression [6, 18] was “increase (An increase in ABCB1, ABCC1, or ABCG2 expression of at least 20% at a minimum of one concentration is shown in the table.)” and the ABCC1 expression ([7]; culture TR58, cancer cells (CK8/18+), 7 days) was “no change”. The ABCC1 expression ([7]; culture TR64, cancer cells (CK8/18+), 7 days) was “increase (An increase in ABCB1, ABCC1, or ABCG2 expression of at least 20% at a minimum of one concentration is shown in the table.)”, the ABCC1 expression ([7]; culture TR65, cancer cells (CK8/18+), 7 days) was “increase (An increase in ABCB1, ABCC1, or ABCG2 expression of at least 20% at a minimum of one concentration is shown in the table.)” and the ABCC1 expression ([7]; culture TR84, cancer cells (CK8/18+), 7 days) was “increase (An increase in ABCB1, ABCC1, or ABCG2 expression of at least 20% at a minimum of one concentration is shown in the table.)”. The ABCC1 expression ([7]; culture TR87, cancer cells (CK8/18+), 7 days) was “increase (An increase in ABCB1, ABCC1, or ABCG2 expression of at least 20% at a minimum of one concentration is shown in the table.)”, the ABCG2 expression [8, 14] was “increase (An increase in ABCB1, ABCC1, or ABCG2 expression of at least 20% at a minimum of one concentration is shown in the table.)” and the ABCG2 expression [8, 15] was “increase (An increase in ABCB1, ABCC1, or ABCG2 expression of at least 20% at a minimum of one concentration is shown in the table.)”. For the same compound, the ABCG2 expression [8, 16] was “increase (An increase in ABCB1, ABCC1, or ABCG2 expression of at least 20% at a minimum of one concentration is shown in the table.)”, the ABCG2 expression [8, 17] was “increase (An increase in ABCB1, ABCC1, or ABCG2 expression of at least 20% at a minimum of one concentration is shown in the table.)” and the ABCG2 expression [8, 18] was “increase (An increase in ABCB1, ABCC1, or ABCG2 expression of at least 20% at a minimum of one concentration is shown in the table.)”.
For `COc1cc2ncnc(Nc3ccc(F)c(Cl)c3)c2cc1OCCCN1CCOCC1` [gefitinib], the ABCC1 expression ([7]; culture TR58, cancer cells (CK8/18+), Table S2) was “no change”, the ABCC1 expression ([7]; culture TR64, cancer cells (CK8/18+), Table S2) was “no change” and the ABCC1 expression ([7]; culture TR65, cancer cells (CK8/18+), Table S2) was “increase (an increase in ABCC1 expression of at least 20% at a minimum of one concentration is shown in the Table.)”. For the same compound, the ABCC1 expression ([7]; culture TR84, cancer cells (CK8/18+), Table S2) was “increase (an increase in ABCC1 expression of at least 20% at a minimum of one concentration is shown in the Table.)”, the ABCC1 expression ([7]; culture TR87, cancer cells (CK8/18+), Table S2) was “no change” and the ABCC1 expression [9, 19] was “no change”. For the same compound, the ABCC1 expression [9, 20] was “no change”, the ABCC1 expression [9, 21] was “no change” and the ABCC1 expression [9, 22] was “no change”. For the same compound, the ABCC1 expression [9, 23] was “no change”.
